According to patent US5506211A, “Genistein for use in inhibiting osteroclasts” (The UAB Research Foundation, priority 1994, dated 1996):
Where “and” joins values, the source holds several entries; their conditions need not be identical. Equal entries are not always repeated. Where two headings read alike, the source gives them in different places.

Experiments:
osteoclasts [1] = assay: in vitro
Procedure: (§1) Since advantageous effects are seen at 1 μM, with half maximal effects at 2-3 μM, toxicity at 30 μM indicates a broad therapeutic margin. […] It should also be noted that doses would not be designed to achieve 100%, or even 50%, inhibition as osteoclasts are vital cells. Thus, 10-20% inhibition would likely result in a clear benefit to the patient without significant side effects, particularly as over-inhibtion would be compensated for by production of PTH.

[2] = system: avian osteoclast membrane HCl transport; assay: Osteoclast membrane vesicle acid transport (acridine orange fluorescence quenching); assay type: biochemical, Gallus domesticus; conditions: for effect of valinomycin on inhibited vesicle acid transport: 120 mM KCl, 5 μM herbimycin, 20 μM genistein; for IC50: osteoclast membrane vesicles, read-out: half maximal inhibition of osteoclast acid transport / acid secretion; for reversal of inhibition by by-passing chloride conductivity with valinomycin: valinomycin 2 μM, potassium 120 mM; for activity on acid transport: 25 μM
avian osteoclasts [3] = assay: Bone resorption assay with [3H]-proline labeled bone and isolated osteoclasts; assay type: cell-based, Gallus domesticus; conditions: for IC (essentially complete): 72 h, read-out: concentration giving essentially complete inhibition of bone resorption; for bone resorption: negative to concentration: quadruplicate assays
Procedure: Arian osteoclasts were isolated from medullary bone of calcium-starved white leghorn laying hens, Gallus domesticus, essentially as described by Blair et al. (1986). […] 90-98% of cell mass of sedimenting material consists of osteoclasts or essentially inert red cells (Zambonin-Zallone et al., 1982; Blair et al., 1986). Although rich in osteoclasts, these preparations contain significant numbers of all other components of bone, including osteoblasts and marrow cells.
Cells were plated on glass cover slips in 3 cm petri plates for fluorescence studies, or 15 cm petri plates for Western Blots, or 24 well plates (2 cm^2 /well) for resorption and binding studies. For resorption and binding studies, cells were plated at 5×10^3 /well. Cells were maintained in α-MEM containing 5% fetal calf serum, 5% chicken serum, 100 μg/ml streptomycin and 100 units/ml penicillin at 37° C. in humidified air with 5% CO2.
Where bone was used, this was devitalized fragmented rat bone (Blair et al., 1986) sieved to sizes indicated, usually 25-50 μm. For studies of osteoclasts attached to bone or tissue culture plates, 100 μg unlabeled bone per 2 cm^2 well was used, or 5 mg per 10 cm plate.
Bone resorption was measured using [^3 H]-proline labeled bone (Blair et al., 1986).

avian osteoclasts [4] = assay: as above; assay type: cell-based, Gallus domesticus; conditions: Gallus gallus, Osteoclast, read-out: half maximal effect on bone resorption, 100 μg 3H-proline labeled bone, 10^4 osteoclasts
[5] = Southeast Asians, 70 mg per day; cited from earlier work
[6] = Biliary appearance of intestinally administered genistein in rats; assay type: in vivo; conditions: rat, bile, intestinal administration with NaTC, over a 4 hr period, read-out: fraction of administered genistein appearing in bile
Procedure: (§2) The low aqueous solubility of genistein (<50 μg per ml) should also be considered. This might result in a maximum total absorption independent of dose. […] The present inventors have used this delivery method for studies performed in rats. […] NaTC is a naturally occurring bile salt and may have a role in the absorption of genistein released from food.

osteoclasts [7] = assay: Bone binding (adherence of labeled bone fragments to cultured osteoclasts); assay type: cell-based, Gallus domesticus
Procedure: Bone binding was determined by adherence of bone fragments to cultured cells (Carano et al., 1990). Briefly, this entailed adding labeled bone fragments to 3 day osteoclast cultures, incubating 4 h at 37° C. in a α-MEM with 5% fetal calf serum and 5% chicken serum, washing with PBS […], solubilizing the label overnight in 6N HCl, and scintillation counting.

Aqueous solubility = assay type: physicochemical
Procedure: as §2

in vitro = conditions: osteoclasts
Procedure: as §1

CO[C@H]1[C@@H](OC)C[C@H](C)[C@@H](OC)C2=CC(=O)C=C(NC(=O)/C(C)=C/C=C\[C@H](OC)[C@@H](OC(N)=O)/C(C)=C/[C@@H]1C)C2=O [Herbimycin A]
toxicity relative to genistein (osteoclasts [1]): about ten times more toxic
toxicity threshold relative to genistein, fold lower (osteoclasts [1]; chicken): about 10 fold
effective dose on osteoclast acid secretion relative to genistein, fold lower [2]: about 10 fold
effect of valinomycin on inhibited vesicle acid transport [2]: restored acid transport activity
IC50 [2]: ~2000 nM
reversal of inhibition by by-passing chloride conductivity with valinomycin [2]: partially reversed
IC (essentially complete) (avian osteoclasts [3]; Gallus gallus, Osteoclast): 1 µM
IC50 (avian osteoclasts [4]): 300 to 500 nM

N#CC(C#N)=Cc1cc(O)c(O)c(O)c1 [Tyrphostin A25]
activity on acid transport [2]: inactive

N#CC(=Cc1ccc(O)c(O)c1)C(N)=S [Tyrphostin A47]
IC50 [2]: 12000 nM
bone resorption: negative to concentration (avian osteoclasts [3]): > 20 µM

O=c1c(-c2ccc(O)cc2)coc2cc(O)ccc12 [daidzein, 4',7-dihydroxyisoflavone]
activity on acid transport [2]: inactive
inhibition of osteoclast acid transport ([2]; 30 μM): < 20%
effect on bone resorption (avian osteoclasts [3]; 10 μM): no effect
inhibition at 30 µM (avian osteoclasts [3]; Gallus gallus, Osteoclast, 30 μM): ~10%
activity in the osteoclast assay systems (avian osteoclasts [3]; osteoclast assay systems disclosed): negligible activity
bone resorption: negative to concentration (avian osteoclasts [3]): > 20 µM

O=c1c(-c2ccc(O)cc2)coc2cc(O)cc(O)c12 [genistein, 5,7,4'-trihydroxyisoflavone]
ill effects of dietary intake [5]: without obvious ill effects
dose excreted at 4 h [6]: 40 to 50%
effect on osteoclast binding to bone (osteoclasts [7]): alter the ability of osteoclasts to bind to bone
aqueous solubility when mixed with bile salt (Aqueous solubility; mixed with sodium taurocholate (NaTC)): substantially enhanced
solubility (Aqueous solubility; water): < 50 µg/mL
MCC (in vitro; chicken): 30 µM
selectivity ratio (in vitro): ~30
time in which cells die (osteoclasts [1]; 30 μM genistein): 2 to 3 days
level effective at inhibiting osteoclast acid secretion [2]: less than 1 μM and < 0.27 μg/ml
effect of valinomycin on inhibited vesicle acid transport [2]: valinomycin insensitive
inhibition of osteoclast cell membrane acid transport (FIG. 2) ([2]; doses comparable to those inhibiting bone resorption): inhibited
IC50 [2]: ~3000 nM
reversal of inhibition by by-passing chloride conductivity with valinomycin [2]: not reversed
inhibition of bone resorption / degradation (FIG. 1) (avian osteoclasts [3]): significantly inhibited
IC (essentially complete) (avian osteoclasts [3]; Gallus gallus, Osteoclast, at 3 days): 20 µM
inhibition of bone resorption / degradation (FIG. 1) (avian osteoclasts [3]; listed as Genistein): significantly inhibits
